According to PubChem BioAssay AID256 (DTP/NCI, 2004):
Where “and” joins values, the source holds several entries; their conditions need not be identical. Identical values can stand only once. Toxic doses and inconclusive results are not listed. The calls were made as follows: active = survival T/C of 150% or more; inactive = T/C below 125% in these data.

Tested on: CD2F1 mice, L1210 leukemia ip, survival T/C
Test: NCI In Vivo Anticancer Drug Screen. Data for tumor model L1210 Leukemia (intraperitoneal) in CD2F1 (CDF1) mice
Details: higher = longer survival
How it was run: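 Transplantable tumor in mice; compound-treated vs vehicle-treated groups. Read-out = treated/control ratio of the measured endpoint.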

[1] = endpoint: mean survival time, dose: 100.0 mg/kg/injection, schedule: Q04DX003 (ip), vehicle: saline with Tween-80
[2] = endpoint: mean survival time, dose: 200.0 mg/kg/injection, schedule: Q04DX003 (ip), vehicle: saline with Tween-80
[3] = endpoint: mean survival time, dose: 400.0 mg/kg/injection, schedule: Q04DX003 (ip), vehicle: saline with Tween-80
[4] = endpoint: mean survival time, dose: 100.0 mg/kg/injection, schedule: Q01DX001 (ip), vehicle: saline with Tween-80
[5] = endpoint: mean survival time, dose: 200.0 mg/kg/injection, schedule: Q01DX001 (ip), vehicle: saline with Tween-80
[6] = endpoint: mean survival time, dose: 400.0 mg/kg/injection, schedule: Q01DX001 (ip), vehicle: saline with Tween-80
[7] = endpoint: mean survival time, dose: 12.5 mg/kg/injection, schedule: Q04DX002 (ip), vehicle: saline with Tween-80
[8] = endpoint: mean survival time, dose: 25.0 mg/kg/injection, schedule: Q04DX002 (ip), vehicle: saline with Tween-80
[9] = endpoint: mean survival time, dose: 50.0 mg/kg/injection, schedule: Q04DX002 (ip), vehicle: saline with Tween-80
[10] = endpoint: mean survival time, dose: 50.0 mg/kg/injection, schedule: Q01DX009 (ip), vehicle: saline with Tween-80
[11] = endpoint: mean survival time, dose: 100.0 mg/kg/injection, schedule: Q01DX009 (ip), vehicle: saline with Tween-80
[12] = endpoint: mean survival time, dose: 200.0 mg/kg/injection, schedule: Q01DX009 (ip), vehicle: saline with Tween-80
[13] = endpoint: mean survival time, dose: 400.0 mg/kg/injection, schedule: Q01DX009 (ip), vehicle: saline with Tween-80
[14] = endpoint: mean survival time, dose: 100.0 mg/kg/injection, schedule: Q04DX003 (ip), vehicle: saline
[15] = endpoint: mean survival time, dose: 200.0 mg/kg/injection, schedule: Q04DX003 (ip), vehicle: saline

Measured: T/C

C=CC#N
inactive: endpoint: mean survival time, dose: 12.5 mg/kg/injection, schedule: Q04DX003 (ip), vehicle: saline with Tween-80 105 % of control | endpoint: mean survival time, dose: 25.0 mg/kg/injection, schedule: Q04DX003 (ip), vehicle: saline with Tween-80 102 % of control | endpoint: mean survival time, dose: 50.0 mg/kg/injection, schedule: Q04DX003 (ip), vehicle: saline with Tween-80 108 % of control

CC1SC(=S)N(c2ccccc2)C1=O (centres undefined)
inactive: [1] 112 % of control | [2] 97 % of control | [3] 101 % of control

CSc1ccc(OC(=O)Nc2ccccc2F)cc1
inactive: [1] 101 % of control | [2] 112 % of control

CCCCCCCCCCCC(CCCC)CCCCCCCCCC (centres undefined)
inactive: endpoint: mean survival time, dose: 100.0 mg/kg/injection, schedule: Q01DX001 (ip), vehicle: saline sonified 96 % of control | endpoint: mean survival time, dose: 200.0 mg/kg/injection, schedule: Q01DX001 (ip), vehicle: saline sonified 102 % of control | endpoint: mean survival time, dose: 400.0 mg/kg/injection, schedule: Q01DX001 (ip), vehicle: saline sonified 108 % of control

C=C1COC(O)(C2OCOC(C3CC(=O)NC(=O)C3)C2O)C1C (centres undefined)
inactive: endpoint: median survival time, dose: 4.0 micrograms/kg/injection, schedule: Q01DX009 (ip), vehicle: water 103 % of control | endpoint: median survival time, dose: 8.0 micrograms/kg/injection, schedule: Q01DX009 (ip), vehicle: saline 110 % of control | endpoint: median survival time, dose: 8.0 micrograms/kg/injection, schedule: Q01DX009 (ip), vehicle: water 118 % of control and 102 % of control | endpoint: median survival time, dose: 16.0 micrograms/kg/injection, schedule: Q01DX009 (ip), vehicle: saline 116 % of control | endpoint: median survival time, dose: 16.0 micrograms/kg/injection, schedule: Q01DX009 (ip), vehicle: water 116 % of control | endpoint: median survival time, dose: 32.0 micrograms/kg/injection, schedule: Q01DX009 (ip), vehicle: saline 118 % of control

Nc1nc(N)c2cc(CCc3ccc(C(=O)NC(CCC(=O)O)C(=O)O)cc3)ccc2n1 (centres undefined)
inactive: endpoint: mean survival time, dose: 0.31 mg/kg/injection, schedule: Q01DX009 (ip), vehicle: Klucel (hydroxypropylcellulose) (HPC) 119 % of control

CCCCCC(=O)COCC
inactive: [1] 103 % of control | [2] 91 % of control | [3] 103 % of control

CCCCCCCNC(=O)Nc1ccc(Cl)c(Cl)c1
inactive: [4] 103 % of control | [5] 100 % of control | [6] 103 % of control

COc1cc(N=CNc2cc(OC)n[n+]([O-])c2)c[n+]([O-])n1
inactive: [7] 111 % of control | [8] 86 % of control | [9] 101 % of control

CC(=O)OC1CCC2(C)C(CCC3C2CCC2(C)C3CC3OC4(CCC(C)CO4)C(C)C32)C1 (centres undefined)
inactive: [1] 95 % of control and 92 % of control | [2] 89 % of control and 90 % of control and 95 % of control | [3] 87 % of control and 90 % of control

Cn1nc(-c2ccccc2)nc1[N+](=O)[O-]
inactive: endpoint: mean survival time, dose: 12.5 mg/kg/injection, schedule: Q01DX009 (ip), vehicle: saline with Tween-80 90 % of control and 103 % of control | endpoint: mean survival time, dose: 25.0 mg/kg/injection, schedule: Q01DX009 (ip), vehicle: saline with Tween-80 97 % of control | [10] 103 % of control and 106 % of control | [11] 121 % of control and 100 % of control

CN(CCC(=O)N(C)CCC1CCCCC1)CCC1CCCCC1
inactive: endpoint: mean survival time, dose: 75.0 mg/kg/injection, schedule: Q01DX001 (ip), vehicle: saline 98 % of control

Cc1cccc(C(=O)CC(O)(C(F)(F)F)C(F)(F)F)c1
inactive: [11] 98 % of control | [12] 95 % of control | [13] 104 % of control

Cc1cc(NC(=O)CCc2ccc(N3C(N)=NC(N)=NC3(C)C)cc2)ccc1S(=O)(=O)F
inactive: endpoint: mean survival time, dose: 0.8 mg/kg/injection, schedule: Q01DX015 (ip), vehicle: water 112 % of control | endpoint: mean survival time, dose: 4.0 mg/kg/injection, schedule: Q01DX015 (ip), vehicle: water 98 % of control | endpoint: mean survival time, dose: 20.0 mg/kg/injection, schedule: Q01DX015 (ip), vehicle: water 101 % of control | endpoint: mean survival time, dose: 100.0 mg/kg/injection, schedule: Q01DX015 (ip), vehicle: water 110 % of control | endpoint: mean survival time, dose: 500.0 mg/kg/injection, schedule: Q01DX015 (ip), vehicle: water 113 % of control

Cc1ccc(/C=N/NC(=O)CNC(=O)Nc2cccc([N+](=O)[O-])c2)cc1
inactive: [10] 92 % of control | [11] 88 % of control

CC(Nc1ccccc1C(=O)O)C(=O)O (centres undefined)
inactive: [1] 102 % of control | [2] 104 % of control | [3] 104 % of control

CC(=O)C1CCC2C3CC=C4CC(n5cc(C)c(=O)[nH]c5=O)CCC4(C)C3CCC12C (centres undefined)
inactive: endpoint: mean survival time, dose: 12.5 mg/kg/injection, schedule: Q04DX003 (ip), vehicle: Klucel (hydroxypropylcellulose) (HPC) 90 % of control | endpoint: mean survival time, dose: 25.0 mg/kg/injection, schedule: Q01DX001 (ip), vehicle: Klucel (hydroxypropylcellulose) (HPC) 95 % of control | endpoint: mean survival time, dose: 25.0 mg/kg/injection, schedule: Q04DX003 (ip), vehicle: Klucel (hydroxypropylcellulose) (HPC) 96 % of control | endpoint: mean survival time, dose: 50.0 mg/kg/injection, schedule: Q01DX001 (ip), vehicle: Klucel (hydroxypropylcellulose) (HPC) 100 % of control | endpoint: mean survival time, dose: 50.0 mg/kg/injection, schedule: Q04DX003 (ip), vehicle: Klucel (hydroxypropylcellulose) (HPC) 94 % of control | endpoint: mean survival time, dose: 100.0 mg/kg/injection, schedule: Q01DX001 (ip), vehicle: Klucel (hydroxypropylcellulose) (HPC) 88 % of control | endpoint: mean survival time, dose: 100.0 mg/kg/injection, schedule: Q04DX003 (ip), vehicle: Klucel (hydroxypropylcellulose) (HPC) 100 % of control | endpoint: mean survival time, dose: 200.0 mg/kg/injection, schedule: Q01DX001 (ip), vehicle: Klucel (hydroxypropylcellulose) (HPC) 91 % of control | endpoint: mean survival time, dose: 200.0 mg/kg/injection, schedule: Q04DX003 (ip), vehicle: Klucel (hydroxypropylcellulose) (HPC) 102 % of control | endpoint: mean survival time, dose: 400.0 mg/kg/injection, schedule: Q01DX001 (ip), vehicle: Klucel (hydroxypropylcellulose) (HPC) 95 % of control

O=C(CCCN1CCC(O)(c2ccc(C(F)(F)F)cc2)CC1)c1ccc(N2CCC(O)CC2)cc1
inactive: [7] 103 % of control | [8] 103 % of control | [9] 103 % of control

O=S(=O)(O)Cc1ccccc1O
inactive: endpoint: mean survival time, dose: 100.0 mg/kg/injection, schedule: Q01DX001 (ip), vehicle: saline 100 % of control | [14] 96 % of control | endpoint: mean survival time, dose: 200.0 mg/kg/injection, schedule: Q01DX001 (ip), vehicle: saline 100 % of control | [15] 95 % of control | endpoint: mean survival time, dose: 400.0 mg/kg/injection, schedule: Q01DX001 (ip), vehicle: saline 102 % of control | endpoint: mean survival time, dose: 400.0 mg/kg/injection, schedule: Q04DX003 (ip), vehicle: saline 89 % of control

Cc1c(N)cccc1F
inactive: endpoint: mean survival time, dose: 50.0 mg/kg/injection, schedule: Q01DX009 (ip), vehicle: saline sonified 95 % of control | [14] 95 % of control | [15] 95 % of control

O=NN(CC(=O)N/N=C\c1ccc(Cl)cc1)CC(=O)N/N=C/c1ccc(Cl)cc1
inactive: [11] 91 % of control | [12] 94 % of control | [13] 96 % of control

CC1(C)COC(=O)N1
inactive: endpoint: mean survival time, dose: 75.0 mg/kg/injection, schedule: Q01DX009 (ip), vehicle: saline with Tween-80 104 % of control | [14] 108 % of control | endpoint: mean survival time, dose: 150.0 mg/kg/injection, schedule: Q01DX009 (ip), vehicle: saline with Tween-80 101 % of control

CC(C)CCCC(C)C1CCC2C3C(=O)C4=CC(=O)CCC4(C)C3CCC12C (centres undefined)
inactive: [4] 94 % of control | [5] 96 % of control | [6] 90 % of control
